In patent publication US20230382925A1, “MODULATORS OF CYSTIC FIBROSIS TRANSMEMBRANE CONDUCTANCE REGULATOR” (VERTEX PHARMACEUTICALS INCORPORATED, priority 2020, published 2023):
Values joined by “and” are separate entries in the source; they are usually repeats but may differ in a detail not shown here. Identical values can stand only once. Like-named read-outs stand apart in the source and are kept apart here.

Key:
[1] = amide bond, 13-membered ring, DMF
[2] = molecular target: T1, CFTR (Homo sapiens, UniProt P13569, DEL508-508); assay: HBE assay: Ussing chamber assay of CFTR-mediated short-circuit currents (F508del/MF-HBE, with 1 μM Ivacaftor); type: cell-based; conditions: F508del/MF-HBE cells, 18-24 hours, 20% human serum; for EC50: range of concentrations with 1 μM Ivacaftor; for HBE Max Activity: with 1 μM Ivacaftor, compared to known Vertex corrector with 18 μM Tezacaftor and 1 μM Ivacaftor; for HBE Activity at 10 μM: single fixed concentration of 10 μM with 1 μM Ivacaftor
T1 construct: human bronchial epithelial (HBE) cells derived from CF subjects heterozygous for F508del; endogenous in cells; host or cells: primary human bronchial epithelial cells from CF subjects (F508del/MF-HBE)
Procedure: 1. Ussing Chamber Assay of CFTR-mediated short-circuit currents
Ussing chamber experiments were performed using human bronchial epithelial (HBE) cells derived from CF subjects heterozygous for F508del and a minimal function CFTR mutation (F508del/MF-HBE) and cultured as previously described (Neuberger T, Burton B, Clark H, Van Goor F Methods Mol Biol 2011:741:39-54). After four days the apical media was removed, and the cells were grown at an air liquid interface for >14 days prior to use.
To isolate the CFTR-mediated short-circuit (ISC) current, F508del/MF-HBE grown on Costar® Snapwell™ cell culture inserts were mounted in an Ussing chamber and the transepithelial ISC was measured under voltage-clamp recording conditions (Vhold=0 mV) at 37° C. The basolateral solution contained (in mM) 145 NaCl, 0.83 K2HPO4, 3.3 KH2PO4, 1.2 MgCl2, 1.2 CaCl2), 10 Glucose, 10 HEPES (pH adjusted to 7.4 with NaOH) and the apical solution contained (in mM) 145 NaGluconate, 1.2 MgCl2, 1.2 CaCl2), 10 glucose, 10 HEPES (pH adjusted to 7.4 with NaOH) and 30 μM amiloride to block the epithelial sodium channel. Forskolin (20 μM) was added to the apical surface to activate CFTR, followed by apical addition of a CFTR inhibitor cocktail consisting of BPO, GlyH-101, and CFTR inhibitor 172 (each at 20 μM final assay concentration) to specifically isolate CFTR currents. The CFTR-mediated ISC (μA/cm^2) for each condition was determined from the peak forskolin response to the steady-state current following inhibition.
2. Identification of Corrector Compounds
The activity of the CFTR corrector compounds on the CFTR-mediated ISC was determined in Ussing chamber studies as described above. The F508del/MF-HBE cell cultures were either incubated with the corrector compounds at a range of concentrations in combination with 1 μM Ivacaftor or were incubated with the corrector compounds at a single fixed concentration of 10 μM in combination with 1 μM Ivacaftor for 18-24 hours at 37° C. and in the presence of 20% human serum. The concentration of corrector compounds with 1 μM Ivacaftor during the 18-24 hours incubations was kept constant throughout the Ussing chamber measurement of the CFTR-mediated ISC to ensure compounds were present throughout the entire experiment.

T1 sequence (P13569 with tags, fused parts or gaps DEL508-508): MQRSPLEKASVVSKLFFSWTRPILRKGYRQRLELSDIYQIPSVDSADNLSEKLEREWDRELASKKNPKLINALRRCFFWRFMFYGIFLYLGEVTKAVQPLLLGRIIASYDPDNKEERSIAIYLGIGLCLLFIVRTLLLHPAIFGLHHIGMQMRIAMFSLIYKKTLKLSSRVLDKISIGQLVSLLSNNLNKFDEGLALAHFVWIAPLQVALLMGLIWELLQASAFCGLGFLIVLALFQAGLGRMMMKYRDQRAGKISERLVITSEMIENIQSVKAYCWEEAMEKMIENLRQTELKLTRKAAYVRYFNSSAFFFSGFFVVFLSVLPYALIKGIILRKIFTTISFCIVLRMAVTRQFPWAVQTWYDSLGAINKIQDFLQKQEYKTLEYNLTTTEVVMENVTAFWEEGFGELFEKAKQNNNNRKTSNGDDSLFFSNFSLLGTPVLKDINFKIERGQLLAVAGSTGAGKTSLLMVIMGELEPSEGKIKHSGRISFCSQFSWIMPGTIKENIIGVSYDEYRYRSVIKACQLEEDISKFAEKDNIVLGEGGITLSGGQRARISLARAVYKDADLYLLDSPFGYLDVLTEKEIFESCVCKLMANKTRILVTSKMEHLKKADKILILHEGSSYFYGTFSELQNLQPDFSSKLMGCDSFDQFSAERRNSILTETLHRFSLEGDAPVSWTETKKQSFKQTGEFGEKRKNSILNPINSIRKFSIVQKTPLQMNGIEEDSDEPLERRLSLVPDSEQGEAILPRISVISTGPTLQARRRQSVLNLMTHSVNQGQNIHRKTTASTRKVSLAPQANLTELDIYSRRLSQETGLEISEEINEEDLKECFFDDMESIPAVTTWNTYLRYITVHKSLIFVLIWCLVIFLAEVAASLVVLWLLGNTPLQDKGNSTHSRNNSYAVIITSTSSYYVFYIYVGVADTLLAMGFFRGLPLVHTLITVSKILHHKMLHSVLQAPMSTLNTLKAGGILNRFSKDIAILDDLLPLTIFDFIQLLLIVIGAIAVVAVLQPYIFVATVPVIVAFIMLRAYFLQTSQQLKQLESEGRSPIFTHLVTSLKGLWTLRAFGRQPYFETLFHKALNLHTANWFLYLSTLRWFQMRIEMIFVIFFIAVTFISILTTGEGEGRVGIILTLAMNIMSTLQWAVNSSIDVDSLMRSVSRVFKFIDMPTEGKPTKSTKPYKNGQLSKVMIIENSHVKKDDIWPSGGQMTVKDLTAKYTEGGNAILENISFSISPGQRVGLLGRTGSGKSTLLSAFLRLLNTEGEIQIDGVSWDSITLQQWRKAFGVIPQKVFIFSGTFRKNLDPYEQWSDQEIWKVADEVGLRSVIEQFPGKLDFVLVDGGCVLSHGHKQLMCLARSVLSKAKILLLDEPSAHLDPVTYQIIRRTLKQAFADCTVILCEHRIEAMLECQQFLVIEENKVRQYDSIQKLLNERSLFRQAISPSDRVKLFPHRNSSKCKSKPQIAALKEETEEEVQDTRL

| SMILES | EC50 [2] | HBE Max Activity [2] | further results |
| --- | --- | --- | --- |
| Cc1cccc(C)c1-c1cc2cc(n1)NS(=O)(=O)c1cccc(c1)C(=O)N(C1CC3(CCN(C(=O)OC(C)(C)C)CC3)C1)[C@H](CC(C)C)CO2 |  |  | ring closure, yield after HPLC ([1]; from Cc1cccc(C)c1-c1cc(OC[C@@H](CC(C)C)NC2CC3(CCN(C(=O)OC(C)(C)C)CC3)C2)cc(NS(=O)(=O)c2cccc(C(=O)O)c2)n1, HATU/DIEA, 34.7 mM, 14.0 h): 16% |
| Cc1cccc(C)c1-c1cc2nc(n1)NS(=O)(=O)c1cccc(n1)C(=O)N(C1CC3(C1)CC(C(C)(C)O)C3)[C@H](CC(C)(C)C)CO2 (stereo partly shown) |  |  | ring closure, yield after HPLC ([1]; from Cc1cccc(C)c1-c1cc(OC[C@@H](CC(C)(C)C)NC2CC3(C2)CC(C(C)(C)O)C3)nc(NS(=O)(=O)c2cccc(C(=O)O)n2)n1, HATU/DIEA, 26.7 mM, 25.0 °C, 17.0 h): 28% |
| Cc1cccc(C)c1-c1cc2nc(n1)NS(=O)(=O)c1cccc(c1)C(=O)N(C1CC(CO)C1)[C@H](CC(C)C)CO2 (stereo partly shown) |  |  | ring closure, yield after HPLC ([1]; from Cc1cccc(C)c1-c1cc(OC[C@@H](CC(C)C)NC2CC(CO)C2)nc(NS(=O)(=O)c2cccc(C(=O)O)c2)n1, HATU/DIPEA, 32.3 mM, 1.0 h): 11% |
| COC(=O)C1CC2(C1)CC(N1C(=O)c3cccc(c3)S(=O)(=O)Nc3nc(cc(-c4c(C)cccc4C)n3)OC[C@H]1CC1(C(F)(F)F)CC1)C2 (stereo partly shown) |  |  | ring closure, yield after HPLC ([1]; from COC(=O)C1CC2(CC(N[C@@H](COc3cc(-c4c(C)cccc4C)nc(NS(=O)(=O)c4cccc(C(=O)O)c4)n3)CC3(C(F)(F)F)CC3)C2)C1, HATU/TEA, 25.0 °C, 16.0 h, 2 steps): 32% |
| Cc1cccc(C)c1-c1cc2nc(n1)NS(=O)(=O)c1cccc(c1)C(=O)N(C1CC(CNC(=O)OC(C)(C)C)C1)[C@H](CC(C)C)CO2 (stereo partly shown) |  |  | ring closure, yield after HPLC ([1]; from Cc1cccc(C)c1-c1cc(OC[C@@H](CC(C)C)NC2CC(CNC(=O)OC(C)(C)C)C2)nc(NS(=O)(=O)c2cccc(C(=O)O)c2)n1, HATU/DIEA, 7.0 h, 2 steps): 15% and 19% |
| Cc1cccc(C)c1-c1cc2nc(n1)NS(=O)(=O)c1cccc(c1)C(=O)N(C1CC3(CC3)C1)C(CC(F)(F)F)CO2 (stereo not shown) |  |  | ring closure, yield after HPLC ([1]; from Cc1cccc(C)c1-c1cc(OCC(CC(F)(F)F)NC2CC3(CC3)C2)nc(NS(=O)(=O)c2cccc(C(=O)O)c2)n1, HATU/TEA, 18.3 mM, 18.0 h): 15% |
| Cc1cccc(C)c1-c1cc2nc(n1)NS(=O)(=O)c1cccc(c1)C(=O)N(C1CCC1C1CC1)[C@H](CC(C)(C)C)CO2 (stereo partly shown) |  |  | ring closure, yield after HPLC ([1]; from Cc1cccc(C)c1-c1cc(OC[C@@H](CC(C)(C)C)NC2CCC2C2CC2)nc(NS(=O)(=O)c2cccc(C(=O)O)c2)n1, CDMT/NMM, 25.0 °C, 2 steps): 2% |
| Cc1cccc(C)c1-c1cc2nc(n1)NS(=O)(=O)c1cccc(c1)C(=O)N(C1CC3(CCN(C)CC3)C1)[C@@H]1CN(C3CC4(CCCCC4)C3)C[C@H]1O2 (stereo partly shown) [Compound 473] |  |  | HBE Activity at 10 μM [2]: +++ (+++ is >60%) |
| Cc1cccc(C)c1-c1cc2nc(n1)NS(=O)(=O)c1cccc(c1)C(=O)N(C1CC3(CCCCN3C(=O)CO)C1)[C@H](CC(C)(C)C)CO2 (stereo in doubt) [Compound 203] |  |  | HBE Activity at 10 μM [2]: +++ (+++ is >60%) |
| Cc1cccc(C)c1-c1cc2nc(n1)NS(=O)(=O)c1cccc(c1)C(=O)N(C1CN(C(=O)OC(C)(C)C)C(C)(C)C1)[C@H](CC(C)C)CO2 (stereo partly shown) |  |  | ring closure, yield after HPLC ([1]; from Cc1cccc(C)c1-c1cc(OC[C@@H](CC(C)C)NC2CN(C(=O)OC(C)(C)C)C(C)(C)C2)nc(NS(=O)(=O)c2cccc(C(=O)O)c2)n1, COMU/DIEA, 2 steps): 8% and 4% |
| Cc1cccc(C)c1-c1cc2nc(n1)NS(=O)(=O)c1cccc(c1)C(=O)N(C1CC(C(=O)OC(C)(C)C)C1)[C@H](CC(C)C)CO2 (stereo partly shown) |  |  | ring closure, yield after HPLC ([1]; from Cc1cccc(C)c1-c1cc(OC[C@@H](CC(C)C)NC2CC(C(=O)OC(C)(C)C)C2)nc(NS(=O)(=O)c2cccc(C(=O)O)c2)n1, HATU/DIEA, 16.0 h, 2 steps): 79% |
| Cc1cccc(C)c1-c1cc2nc(n1)NS(=O)(=O)c1cccc(c1)C(=O)N(C1CC(NC(=O)OC(C)(C)C)C1)[C@H](CC(C)C)CO2 (stereo partly shown) |  |  | ring closure, yield after HPLC ([1]; from Cc1cccc(C)c1-c1cc(OC[C@@H](CC(C)C)NC2CC(NC(=O)OC(C)(C)C)C2)nc(NS(=O)(=O)c2cccc(C(=O)O)c2)n1, HATU/DIPEA, 22.4 mM, 6.0 h, 2 steps): 7% and 6% |
| Cc1cccc(C)c1-c1cc2nc(n1)NS(=O)(=O)c1cccc(c1)C(=O)N(c1cn[nH]c1)[C@H](CC(C)C)CO2 [Compound 99, (11R)-6-(2,6-Dimethylphenyl)-11-isobutyl-2,2-dioxo-12-(1H-pyrazol-4-yl)-9-oxa-2λ^6-thia-3,5,12,19-tetrazatricyclo[12.3.1.14,8]nonadeca-1(18),4(19),5,7,14,16-hexaen-13-one] | 3 to 30 µM | +++ (+++ is >60%) |  |

The next lines start with results.

| EC50 [2] | HBE Max Activity [2] | SMILES | further results |
| --- | --- | --- | --- |
| < 1 µM | +++ (+++ is >60%) | Cc1cccc(C)c1-c1cc2nc(n1)NS(=O)(=O)c1cccc(c1)C(=O)N(C1CC3(CC(N4C[C@@H](C)O[C@@H](C)C4)C3)C1)[C@H](CC(C)(C)C)CO2 (single isomer, unassigned) [Compound 87] |  |
| < 1 µM | +++ (+++ is >60%) | Cc1cccc(C)c1-c1cc2nc(n1)NS(=O)(=O)c1cccc(c1)C(=O)N([C@H]1C[C@@]3(C[C@H](N(C)CC(F)(F)F)C3)C1)[C@H](CC1(C(F)(F)F)CC1)CO2 (stereo partly shown) [Compound 221] |  |
| < 1 µM | +++ (+++ is >60%) | Cc1cccc(C)c1-c1cc2nc(n1)NS(=O)(=O)c1cccc(c1)C(=O)N(C1CC3(CCN(c4ccccn4)CC3)C1)[C@H](CC(C)(C)C)CO2 [Compound 350] |  |
| < 1 µM | +++ (+++ is >60%) | Cc1cccc(C)c1-c1cc2nc(n1)NS(=O)(=O)c1cccc(c1)C(=O)N(c1cn[nH]c1)[C@H](CC(C)(C)C)CO2 [Compound 185, (11R)-6-(2,6-Dimethylphenyl)-11-(2,2-dimethylpropyl)-2,2-dioxo-12-(1H-pyrazol-4-yl)-9-oxa-2λ^6-thia-3,5,12,19-tetrazatricyclo[12.3.1.14,8]nonadeca-1(18),4(19),5,7,14,16-hexaen-13-one] |  |
| 1 to 3 µM | +++ (+++ is >60%) | Cc1cccc(C)c1-c1cc2nc(n1)NS(=O)(=O)c1cccc(c1)C(=O)N(c1cnn(CC(N)=O)c1)[C@H](CC(C)(C)C)CO2 [Compound 426] |  |
| < 1 µM | +++ (+++ is >60%) | Cc1cccc(C)c1-c1cc2nc(n1)NS(=O)(=O)c1cccc(c1)C(=O)N([C@H]1C[C@@]3(C[C@H](NCC(F)(F)F)C3)C1)[C@H](CC1(C(F)(F)F)CC1)CO2 (stereo in doubt) [Compound 220] |  |
| < 1 µM | +++ (+++ is >60%) | Cc1cccc(C)c1-c1cc2nc(n1)NS(=O)(=O)c1cccc(c1)C(=O)N(C1CC3(C1)CC(O)(Cc1ccccc1)C3)[C@H](CC(C)(C)C)CO2 (stereo in doubt) [Compound 430] |  |
| < 1 µM | +++ (+++ is >60%) | Cc1cccc(C)c1-c1cc2nc(n1)NS(=O)(=O)c1cccc(c1)C(=O)N(C1CC3(CC(N4C[C@@H](C)O[C@@H](C)C4)C3)C1)[C@H](CC(C)(C)C)CO2 (single isomer, unassigned) [Compound 86] |  |
| < 1 µM | +++ (+++ is >60%) | Cc1cccc(C)c1-c1cc2nc(n1)NS(=O)(=O)c1cccc(c1)C(=O)N(C1CC3(CCCN3C(=O)CO)C1)[C@H](CC(C)(C)C)CO2 (stereo in doubt) [Compound 205] |  |
| < 1 µM | +++ (+++ is >60%) | Cc1cccc(C)c1-c1cc2nc(n1)NS(=O)(=O)c1cccc(c1)C(=O)N([C@H]1C[C@@]3(CCCN(C(=O)CO)C3)C1)[C@H](CC(C)(C)C)CO2 (single isomer, unassigned) [Compound 145] |  |
| < 1 µM | +++ (+++ is >60%) | Cc1cccc(C)c1-c1cc2nc(n1)NS(=O)(=O)c1cccc(c1)C(=O)N([C@H]1C[C@@](O)(Cc3ccccc3)C1)[C@H](CC(C)(C)C)CO2 (single isomer, unassigned) [Compound 140] |  |
| < 1 µM | +++ (+++ is >60%) | Cc1cccc(C)c1-c1cc2nc(n1)NS(=O)(=O)c1cccc(c1)C(=O)N(C1CC3(CC(N4CCOCC4)C3)C1)[C@H](CC(C)(C)C)CO2 (stereo partly shown) [Compound 433] |  |
| < 1 µM | +++ (+++ is >60%) | Cc1cccc(C)c1-c1cc2nc(n1)NS(=O)(=O)c1cccc(c1)C(=O)N(c1cnn(CC(=O)OC(C)(C)C)c1)[C@H](CC(C)C)CO2 [Compound 429] |  |
